Patent publication US9643951B2, “Compound having somatostatin receptor agonistic activity and pharmaceutical use thereof” (ONO PHARMACEUTICAL CO., LTD., priority 2013, dated 2017)

Tests used:
human SSTR2 = molecular target: T1, human SSTR2 (Homo sapiens, UniProt P30874); assay: Evaluation of SSTR2 agonistic activity using cells expressing human SSTR2 (suppression of forskolin-stimulated cAMP production, SSTR2-CHO-K1); format: cell-based
T1 construct: Myc; expressed in transfected cells
Description: Evaluation of SSTR2 Agonistic Activity Using Cells Expressing Human SSTR2
(1) Isolation of Human SSTR2 Gene
Human brain cDNA was purchased from Ambion (catalogue No.: 7962; Lot No.: 040200121). PCR primers, hSSTR2_F1_XhoI: 5′-[…]-3′ (SEQ ID NO: 1) and hSSTR2_R1_EcoRI: 5′-[…]-3′ (SEQ ID NO: 2) were designed on the basis of the sequence GenBank NM_001050.
PCR reaction (95° C. for 2 min.→[98° C. for 10 sec., 60° C. for 30 sec. and 68° C. for 90 sec.]×30 cycles) was carried out using the human brain cDNA as a template and using KOD-plus-(TOYOBO Co., Ltd.). The amplified PCR product was subjected to 1% agarose gel electrophoresis, purified using QIAquick Gel Extraction Kit (QIAGEN) and digested with restriction enzymes XhoI and EcoRI. The digested fragments were ligated to an expression vector (pIRESneo-Myc) using the DNA Ligation Kit Ver. 2 (Takara) and used for transformation of E. coli DH5a. The plasmid pIRESneo-Myc/hSSTR2 was prepared and the DNA sequence thereof was confirmed.
(2) Culture of CHO-K1 Cells
CHO-K1 (−) was cultured in Ham's F-12 medium (containing foetal bovine serum (10%), penicillin (100 U/mL) and streptomycin (0.1 mg/mL)). The transduced cells were cultured in the same medium supplemented with Geneticin (1 mg/mL).
(3) Transduction of CHO-K1 Cells
CHO-K1(−) cells were transduced with the plasmid pIRESneo-Myc/hSSTR2 using Lipofectamine 2000 (Invitrogen). After 48 hours, selection was carried out by replacing the medium with the one containing 1 mg/mL of Geneticin to establish a stable overexpressing cell line (SSTR2-CHO-K1).
(4) Evaluation of SSTR2 Agonistic Activity
The human SSTR2 agonistic activity of a test compound was evaluated according to the following procedures by using a suppression activity of intracellular cyclic AMP (cAMP) production by forskolin stimulation as an index. SSTR2-CHO-K1 cells suspended in Ham's F-12 medium (containing foetal bovine serum (10%), penicillin (100 U/mL) and streptomycin (0.1 mg/mL)) supplemented with 0.25 mg/mL of Geneticin were inoculated into a 96-well plate at a density of 4.0×10^4 cells/0.1 mL per well. On the next day, the medium was removed and washed twice with 0.1 mL of wash buffer [0.1% bovine serum albumin (BSA), 20 mmol/L 4-(2-hydroxyethyl)-1-piperazineethane sulphonic acid (HEPES)-containing Hank's balanced salt solution (HBSS)]. An assay buffer [[…] 3-isobutyl-1-methylxanthine (IBMX), 0.1% BSA, 20 mmol/L HEPES-containing HBSS] was added to the wells at 0.06 mL per well and the plate was incubated for 15 minutes under the conditions of 5% carbon dioxide and 37° C. Thereafter, an assay buffer containing a test compound at a concentration twice as high as the final concentration and 0.02 mmol/L of forskolin was added to wells at 0.06 mL per well and the plate was incubated for 30 minutes under the conditions of 5% carbon dioxide and 37° C. Thereafter, the Assay/Lysis buffer included in the cAMP-Screen® kit (available from Applied Biosystems) was added to wells at 0.12 mL per well and the plate was incubated for 30 minutes under the conditions of 5% carbon dioxide and 37° C. The concentration of cAMP in samples were measured by ELISA according to the instruction of the kit.

[1] = tested on: growth hormone (GH) secretion; assay: Evaluation of suppression of growth hormone (GH) secretion using rats (GHRH-induced); format: in vivo; details: Rattus norvegicus, Procedure (B): oral administration 8 hours beforehand, read-out: percentage of suppression of GH secretion
Description: Evaluation of Suppression of Growth Hormone (GH) Secretion Using Rats
[Procedure (A): Administration of a Test Compound 30 Minutes Beforehand]
A medium (distilled water (Otsuka distilled water, Otsuka Pharmaceutical Factory, […]) IGS rats (Charles River Laboratories Japan, Inc.)) and after 27 minutes, the animals were administered with 50 mg/kg of pentobarbital sodium (Somnopentyl, Kyoritsu Seiyaku Corporation) via the tail vein for anaesthesia. Three minutes after administration of pentobarbital sodium, the rats were administered with 0.01 mg/kg of growth hormone-releasing hormone (GHRH, Bachem) via the tail vein to induce GH secretion. In order to measure the blood GH concentration, 0.2 mL of blood was collected through the jugular vein at 5 minutes after administration of GHRH. The collected blood was centrifuged at 4° C., 13,000×g for 5 minutes to obtain plasma. The blood GH concentration was measured by using Rat/Mouse Growth Hormone ELISA (Millipore) following the instruction of the kit. The percentage (%) of suppression of GH secretion was determined by using the obtained blood GH concentration and the equation {[suppression (%) of GH secretion]=([blood GH concentration of the group administered with the medium]−[blood GH concentration of the group administered with a test compound])/[blood GH concentration of the group administered with the medium]×100}. In the equation, the group administered with the medium represents the group of animals administered with the medium and the group administered with a test compound represents the group of animals administered with a test compound dissolved in the medium.
[Procedure (B): Administration of a Test Compound 8 Hours Beforehand]
A medium (distilled water (Otsuka distilled water, Otsuka Pharmaceutical Factory, […]) IGS rats (Charles River Laboratories Japan, Inc.)) and after 7 hours and 57 minutes, the animals were administered with 50 mg/kg of pentobarbital sodium (Somnopentyl, Kyoritsu Seiyaku Corporation) via the tail vein for anaesthesia. Three minutes after administration of pentobarbital sodium, the rats were administered with 0.01 mg/kg of growth hormone-releasing hormone (GHRH, Bachem) via the tail vein to induce GH secretion. The rest of the procedure is the same as in [Procedure (A)] described above.

[2] = Human hepatic microsome stability test; format: in vitro ADME; details: human hepatic microsomes 1 mg/mL; 60 minutes; test compound 0.001 mmol/L; 37° C.
Description: Human Hepatic Microsome Stability Test
To a reaction vessel heated to 37° C. in a water bath, 0.392 mL of phosphate buffer (0.1 mol/L, pH 7.4) containing human hepatic microsomes (1 mg/mL, Xenotech) and NADPH-Co-factor (NADP+1.3 mmol/L, BD-Bioscience) was added and pre-incubated for 5 minutes. A 50% acetonitrile solution (0.008 mL) containing 0.05 mmol/L of a test compound was added thereto to initiate the enzyme reaction (final concentration of the test compound: 0.001 mmol/L). Immediately after initiation of the reaction and at 60 minutes thereafter, 0.050 mL of the reaction solution was respectively collected, which was immediately added to an acetonitrile solution (0.2 mL) containing an internal standard (45 nmol/L, 1-[3-(3,5-dimethylphenyl)-4-quinolinyl]-4-piperidineamine) to terminate the enzyme reaction.
The residual rate (%), which is indicative of stability of the test compound, was calculated using the ratio of peak areas between the test compound and the internal substance determined by LC/MS/MS (TSQ Quantum Discovery MAX, Thermo) analysis of the sample thus prepared by the above procedures followed by filtration, and the equation: {[residual rate (%)=[peak area of a test compound in a sample at 60 minutes after initiation of the reaction/peak area of the internal standard]/[peak area of the test compound in the sample immediately after initiation of the reaction/peak area of the internal standard]×100}.

[3] = Evaluation of cytotoxicity using cultured human hepatocytes (intracellular ATP); format: cell-based; details: read-out: IC50 of cytotoxicity (concentration at which 50% of the luminescence is suppressed)
Description: Evaluation of Cytotoxicity Using Cultured Human Hepatocytes
Frozen adhesive human hepatocytes were thawed, suspended in a hepatocellular medium (HCM) purchased from Lonza and inoculated to a 96-well plate coated with collagen. The culture medium of the hepatocytes cultured overnight in an incubator (5% carbon dioxide, 95% air, 37° C.) was exchanged to the medium containing a test compound at a concentration of 0, 12.5, 25, 50, 100, 200 or 400 (×10^−6 mol/L) and the cells were further cultured for 24 hours. Cytotoxicity was evaluated by measuring the intracellular ATP concentration. Specifically, using the Promega Celltiter-Glo luminescent assay kit available from Promega, cells were lysed in the assay buffer included in the kit and the concentration of ATP released from the cells was measured according to the luminescence resulting from luciferin-luciferase enzyme activity. The luminescence was measured on the SpectraMax plate reader from Molecular Devices. The extent of cytotoxicity of a test compound is represented by the concentration (IC50) of the compound at which 50% of the luminescence is suppressed.

T1 sequence (P30874 whole entry): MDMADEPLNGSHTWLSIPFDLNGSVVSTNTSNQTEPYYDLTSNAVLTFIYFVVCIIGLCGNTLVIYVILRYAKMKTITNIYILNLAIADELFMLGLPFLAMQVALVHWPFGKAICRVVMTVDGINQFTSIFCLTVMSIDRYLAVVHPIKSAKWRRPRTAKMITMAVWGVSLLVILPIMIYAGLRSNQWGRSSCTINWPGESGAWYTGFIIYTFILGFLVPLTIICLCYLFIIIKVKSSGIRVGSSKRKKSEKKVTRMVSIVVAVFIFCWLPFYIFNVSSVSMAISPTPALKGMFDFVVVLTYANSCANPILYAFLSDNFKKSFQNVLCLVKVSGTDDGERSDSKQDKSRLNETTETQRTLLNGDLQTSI

EC50 (human SSTR2) [nM]	residual rate [2] [%]	SMILES	inhibition in vivo at 1 mg/kg [1] [%]	IC50 at 24 h [3] [µM]	inhibition in vivo at 10 mg/kg ([1]; 10 mg/kg) [%]
0.024	94.0	CC(C)(C#N)c1ccc(-c2cncc(-c3cc(Cl)cc(Cl)c3)c2N2CCC(N)CC2)cc1 [Example 2(4), 2-{4-[4-(4-amino-1-piperidinyl)-5-(3,5-dichlorophenyl)-3-pyridinyl]phenyl}-2-methylpropanenitrile]	88	13	
0.036	80.3	CCNC1CCN(c2c(-c3ccc(C4(C#N)CC4)cc3)cncc2-c2cc(Cl)cc(Cl)c2)CC1 [Example 5(2), 1-(4-{5-(3,5-dichlorophenyl)-4-[4-(ethylamino)-1-piperidinyl]-3-pyridinyl}phenyl)cyclopropanecarbonitrile]	90	22	
0.021	74.9	CCNC1CCN(c2c(-c3ccc(C(C)(C)C#N)cc3)cncc2-c2cc(Cl)cc(Cl)c2)CC1 [Example 5(4), 2-(4-{5-(3,5-dichlorophenyl)-4-[4-(ethylamino)-1-piperidinyl]-3-pyridinyl}phenyl)-2-methylpropanenitrile]	89	17	
0.045	57.6	CCNC1CCN(c2c(-c3ccc(C(F)(F)F)cc3)cncc2-c2cc(Cl)cc(Cl)c2)CC1 [Example 5(1), 1-{3-(3,5-dichlorophenyl)-5-[4-(trifluoromethyl)phenyl]-4-pyridinyl}-N-ethyl-4-piperidineamine]	90	18	
0.028	67.7	CCNC1CCN(c2c(-c3ccc(OC(F)F)cc3)cncc2-c2cc(Cl)cc(Cl)c2)CC1 [Example 5(3), 1-{3-(3,5-dichlorophenyl)-5-[4-(difluoromethoxy)phenyl]-4-pyridinyl}-N-ethyl-4-piperidineamine]	96	10	
0.031	94.6	NC1CCN(c2c(-c3ccc(C(F)(F)F)cc3)cncc2-c2cc(Cl)cc(Cl)c2)CC1 [Example 1, 1-{3-(3,5-dichlorophenyl)-5-[4-(trifluoromethyl)phenyl]-4-pyridinyl}-4-piperidineamine]	93	19	
0.11	50.3	NC1CCN(c2c(/C=C/c3cccc(Cl)c3)cncc2-c2cc(F)cc(Cl)c2)CC1 [Example 3(1), 1-{3-(3-chloro-5-fluorophenyl)-5-[(E)-2-(3-chlorophenyl)vinyl]-4-pyridinyl}-4-piperidineamine]	86	19	
0.041	100.0	NC1CCN(c2c(-c3ccc(OC(F)F)cc3)cncc2-c2cc(F)cc(Cl)c2)CC1 [Example 2(1), 1-{3-(3-chloro-5-fluorophenyl)-5-[4-(difluoromethoxy)phenyl]-4-pyridinyl}-4-piperidineamine]	91	19	
0.034	100.0	C/C(=C\c1cncc(-c2cc(Cl)cc(Cl)c2)c1N1CCC(N)CC1)c1cccc(C#N)c1 [Example 4, 3-{(1E)-1-[4-(4-amino-1-piperidinyl)-5-(3,5-dichlorophenyl)-3-pyridinyl]-1-propen-2-yl}benzonitrile]	84	17	
0.048	83.9	CCNC1CCN(c2c(/C=C/c3cccc(C#N)c3)cncc2-c2cc(Cl)cc(Cl)c2)CC1 [Example 5(6), 3-[(E)-2-{5-(3,5-dichlorophenyl)-4-[4-(ethylamino)-1-piperidinyl]-3-pyridinyl}vinyl]benzonitrile]	89	18	
0.34	100.0	NC1CCN(c2c(NC(=O)c3cccc(Cl)c3)cncc2-c2cc(F)cc(Cl)c2)CC1 [Example 7, N-[4-(4-amino-1-piperidinyl)-5-(3-chloro-5-fluorophenyl)-3-pyridinyl]-3-chlorobenzamide]		74	93
0.083	88.0	NC1CCN(c2c(-c3ccc(C(F)(F)F)cc3)cncc2-c2cc(F)cc(Cl)c2)CC1 [Example 2, 1-{3-(3-chloro-5-fluorophenyl)-5-[4-(trifluoromethyl)phenyl]-4-pyridinyl}-4-piperidineamine]	93	10	
